Measured values as given in US20230414611A1, “REFINED USES OF GABA A RECEPTOR MODULATORS IN TREATMENT OF FRAGILE X SYNDROME” (CHILDREN'S HOSPITAL MEDICAL CENTER, priority 2020, published 2023).
“Also recorded” adds a separate entry of the source.

Assays:
Format in all cases: in vivo, human
[1] = system: adults with Fragile X Syndrome (FXS); test: ABC-FXS subscales; parameters: scale not given here; details: undetectable FMRP males (n=5), mean ± SD
From the text: Tables 11-16 below summarize alternative […] scoring for the FXS patient treated with AZD7325. ABC-FXS was created for use within this population to take into account FXS-specific symptoms, and has six subscales: Irritability, Social Unresponsiveness/Lethargy, Stereotypy, Hyperactivity, Inappropriate Speech, and Social Avoidance.

[2] = system: adults with Fragile X Syndrome (FXS); test: RBANS list learning in AZD7325 clinical study; parameters: key to RBANS list learning, difference of least squares means, Estimate: Low - High / RBANS list learning, difference of least squares means, Estimate: Baseline - High: difference in raw score (number of words remembered); details: for RBANS_LL change: chronic
[3] = system: adults with Fragile X Syndrome (FXS); test: Clinical response and adverse effects by peripheral FMRP status
Procedure: This study aims at investigating the safety, tolerability, and blood pharmacodynamics of treatment with oral administration of AZD7325 in adults with Fragile X Syndrome (FXS). This study also investigates measures of efficacy and biomarkers during treatment.
The treatment conditions are provided Table 2 below:
Peripheral levels FMRP proteins in the patients were measured by an immunoassay using an antibody specific to FMRP. A fair percentage of males with FXS show mosaicism or a mix of […] and mutation cells. FIG. 3. Peripheral blood FMRP levels from the study participants are shown in Table 4 below (measured using dried blood spot samples using Luminex® Assay; see Example 3 below). The levels of FMRP measured using dried blood spot as disclosed herein are estimated to be about 7 folds higher than the FMRP levels in the blood of the same patient.

[4] = system: adults with Fragile X Syndrome (FXS); test: Aberrant Behavior Checklist (ABC / ABC-C subscales); details: for ABC_C_Subscale_1 Irritability / ABC_C_Subscale_2 Lethargy / ABC_C_Subscale_3 Stereotypy / ABC_C_Subscale_4 Hyperactivity / ABC_C_Subscale_5 Inappropriate Speech: undetectable FMRP males (n=5), mean ± SD
From the text: Secondary Outcome Measures: • Change in the social withdrawal subscale score of the Aberrant Behavior Checklist (ABC) through the end of the study, approximately 12 weeks. The ABC is the gold standard parent/caregiver reported behavioral outcome measure for use in development disability clinical trials. • Change in the Pediatric Anxiety Rating Scale (PARS) through the end of the study, approximately 12 weeks. The PARS is the gold standard parent/caregiver reported anxiety outcome measure for use in Fragile X Syndrome clinical trials.
The Aberrant Behavior Checklist (ABC) is a standardized rating scale used for assessing problematic behavior designed for use in developmental disabilities, with validity for use in FXS (CITE). ABC-C is the original factor structure with 5 subscales: Irritability, Lethargy, Stereotypy, Hyperactivity, and Inappropriate Speech. See, e.g., Aman et al., J. Child Adolesc Psychopharmacol. 30(8):512-521 (2020), the relevant disclosures of which are incorporated by reference for the subject matter and purpose referenced herein. ABC was only assessed chronically (two weeks after treatment). Overall, no indication that ABC changed during chronic phase.

[5] = subgroup of males (outlier removed), high dose 15 mg twice per day oral
[6] = low dose, patients having detectable peripheral FMRP

What does the source list for CCCNC(=O)c1nnc2c(-c3c(F)cccc3OC)cccc2c1N [AZD7325, 4-amino-8-(2-fluoro-6-methoxyphenyl)-N-propylcinnoline-3-carboxamide]?
ABC_FXS_Subscale_1 Irritability ([1]; high dose, baseline): 10.2 ± 10.52; ABC_FXS_Subscale_2 Socially Unresponsive/Lethargic ([1]; high dose, baseline): 1.8 ± 1.92; ABC_FXS_Subscale_3 Stereotypy ([1]; high dose, baseline): 5.0 ± 1.87; ABC_FXS_Subscale_4 Hyperactivity ([1]; high dose, baseline): 6.4 ± 6.80; ABC_FXS_Subscale_5 Inappropriate Speech ([1]; high dose, baseline): 5.6 ± 4.56; ABC_FXS_Subscale_6 Social Avoidance ([1]; high dose, baseline): 1.2 ± 1.79; ABC_FXS_Subscale_1 Irritability ([1]; high dose, chronic): 9.2 ± 7.05; ABC_FXS_Subscale_2 Socially Unresponsive/Lethargic ([1]; high dose, chronic): 1.0 ± 1.22; ABC_FXS_Subscale_3 Stereotypy ([1]; high dose, chronic): 3.4 ± 0.55; ABC_FXS_Subscale_4 Hyperactivity ([1]; high dose, chronic): 4.6 ± 6.31; ABC_FXS_Subscale_5 Inappropriate Speech ([1]; high dose, chronic): 4.4 ± 3.78; ABC_FXS_Subscale_6 Social Avoidance ([1]; high dose, chronic): 0.6 ± 0.89; ABC_FXS_Subscale_1 Irritability ([1]; low dose, baseline): 9.8 ± 8.23; ABC_FXS_Subscale_2 Socially Unresponsive/Lethargic ([1]; low dose, baseline): 2.4 ± 1.52; ABC_FXS_Subscale_3 Stereotypy ([1]; low dose, baseline): 3.8 ± 2.28; ABC_FXS_Subscale_4 Hyperactivity ([1]; low dose, baseline): 4.2 ± 3.77; ABC_FXS_Subscale_5 Inappropriate Speech ([1]; low dose, baseline): 5.4 ± 4.16; ABC_FXS_Subscale_6 Social Avoidance ([1]; low dose, baseline): 2.0 ± 1.87; ABC_FXS_Subscale_1 Irritability ([1]; low dose, chronic): 9.4 ± 9.99; ABC_FXS_Subscale_2 Socially Unresponsive/Lethargic ([1]; low dose, chronic): 2.2 ± 2.39; ABC_FXS_Subscale_3 Stereotypy ([1]; low dose, chronic): 4.6 ± 3.05; ABC_FXS_Subscale_4 Hyperactivity ([1]; low dose, chronic): 4.4 ± 4.98; ABC_FXS_Subscale_5 Inappropriate Speech ([1]; low dose, chronic): 4.6 ± 3.29; ABC_FXS_Subscale_6 Social Avoidance ([1]; low dose, chronic): 2.4 ± 1.82; effect of drug on RBANS list learning ([2]; all eligible subjects (p=0.09)): trending effect; RBANS_LL change ([2]; low dose, female detectable FMRP subjects): improves RBANS growth in 2 of the three female detectable subjects; RBANS_LL change ([2]; low dose, male detectable FMRP subjects): bi-directional distributed and overlap with placebo; effect on RBANS list learning ([2]; low dose, subgroup of males following removal of an outlier): significant beneficial effect; RBANS list learning, difference of least squares means, Estimate: Baseline - High [2, 5]: 2.09; RBANS list learning, difference of least squares means, Estimate: Placebo - High [2, 5]: 0.84; RBANS list learning, difference of least squares means, Estimate: Placebo - Low ([2]; subgroup of males (outlier removed), low dose 5 mg twice per day oral): −4.00; RBANS list learning, difference of least squares means, Estimate: Low - High ([2]; subgroup of males (outlier removed), low dose vs high dose): 4.84; low dose (5 mg BID) versus high dose (15 mg BID) in terms of adverse effects and signal (treatment efficacy) ([3]; human, in vivo): superior over high dose; responsiveness to treatment ([3]; low dose (5 mg twice per day), patients having undetectable peripheral FMRP): responsive; also recorded: showed responsiveness; clinical improvement ([3]; low dose, male patients having undetectable peripheral FMRP): Clinical improvement; responsiveness to treatment [3, 6]: not responsive; ABC lethargy and social withdrawal [4, 6]: increases; ABC lethargy and social withdrawal ([4]; low dose, patients having undetectable peripheral FMRP): reduction; also recorded: reduces; ABC irritability ([4]; low dose, regardless of FMRP status (trending), baseline to chronic): reduction; also recorded: reduces; ABC_C_Subscale_1 Irritability ([4]; high dose, baseline): 7.6 ± 7.44; ABC_C_Subscale_2 Lethargy ([4]; high dose, baseline): 3.2 ± 3.11; ABC_C_Subscale_3 Stereotypy ([4]; high dose, baseline): 5.0 ± 1.87; ABC_C_Subscale_4 Hyperactivity ([4]; high dose, baseline): 9.4 ± 10.74; ABC_C_Subscale_5 Inappropriate Speech ([4]; high dose, baseline): 5.6 ± 4.56; ABC_C_Subscale_1 Irritability ([4]; high dose, chronic): 7.2 ± 5.36; ABC_C_Subscale_2 Lethargy ([4]; high dose, chronic): 1.8 ± 1.48; ABC_C_Subscale_3 Stereotypy ([4]; high dose, chronic): 3.4 ± 0.55; ABC_C_Subscale_4 Hyperactivity ([4]; high dose, chronic): 7.0 ± 9.06; ABC_C_Subscale_5 Inappropriate Speech ([4]; high dose, chronic): 4.4 ± 3.78; ABC_C_Subscale_1 Irritability ([4]; low dose, baseline): 7.6 ± 7.44; ABC_C_Subscale_2 Lethargy ([4]; low dose, baseline): 3.6 ± 2.97; ABC_C_Subscale_3 Stereotypy ([4]; low dose, baseline): 3.8 ± 2.28; ABC_C_Subscale_4 Hyperactivity ([4]; low dose, baseline): 7.8 ± 7.16; ABC_C_Subscale_5 Inappropriate Speech ([4]; low dose, baseline): 5.4 ± 4.16; ABC_C_Subscale_1 Irritability ([4]; low dose, chronic): 7.4 ± 8.02; ABC_C_Subscale_2 Lethargy ([4]; low dose, chronic): 4.6 ± 2.70; ABC_C_Subscale_3 Stereotypy ([4]; low dose, chronic): 4.6 ± 3.05; ABC_C_Subscale_4 Hyperactivity ([4]; low dose, chronic): 7.2 ± 8.07; ABC_C_Subscale_5 Inappropriate Speech ([4]; low dose, chronic): 4.6 ± 3.29
